Experimental data: patent publication US20030125287A1, “Antisense oligonucleotides and methods to induce tumor cell death” (Hybridon, Inc., priority 2001, published 2003)
Entries after “also recorded” stand apart in the source; their conditions may differ. Oligonucleotides are written 5' to 3', each unit as a sugar letter and its base; * is a phosphorothioate linkage, no mark a phosphodiester; rarer units and linkages stand in square brackets, end groups in braces. Plain capitals give the bases only. d = 2'-deoxy (DNA)

Legend:
survivin [1] = test: Western blot of survivin protein in nocodazole-treated TC620 cells; assay type: cell-based, human; settings: nocodazole 10 μM, 24 h
Procedure: The Western blot as represented in FIG. 2B was prepared by isolating total protein from nocadozole-treated (10 μM, 24 h) and untreated TC620 cells, MSN cells, and Jurkat cells. Each lane had 75 μg of total protein.
(§1) To block cells in G2/Ml MSN cells or TC620 cells were treated with 10 μM nocodazole, 1 μM taxotere, or 250 nM vinblastine for 16 hours, at which time total protein homogenates were isolated and proteins were examined following sodium dodecyl sulfate-polyacrylamide gel electrophoresis (SDS-PAGE) and immunoblotting.

survivin [2] = test: Western blot of survivin protein in MSN cells treated with cell cycle checkpoint blockers; assay type: cell-based, human; settings: for fold increase of survivin protein relative to DMSO or EtOH: MSN cells, vinblastine 250 nM, nocadozole 10 μM, taxotere 1 μM; for survivin expression / survivin protein abundance after cell cycle blocker: result in words, cell line not given
Procedure: Total protein was isolated from MSN cells either untreated or treated with vinblastine (250 nM), nocadozole (10 μM), or taxotere (1 μM). DMSO and ethanol (EtOH) were added as carriers. Each lane had 75 μg of total protein. The blots were cut at 32.9 kD, and the bottom blots were incubated with a survivin polyclonal antibody (1:500), while the top blot was incubated with a β-tubulin mAb (1:1000). In each of the treatments, the fold increase of survivin protein relative to DMSO or EtOH was vinblastine, 1.9; nocadozole, 2.6; taxotere, 1.7.
as §1
(§2) Ten micrograms of the fusion protein was incubated with the survivin antibody (1:500) at 4° C. for 2 hours to overnight prior to immunoblotting. […] Blots were cut at 32.9 kD, and the bottom part of the blots were incubated with the survivin antibody overnight at 4° C. and visualized by enhanced chemiluminescence (Enhanced Chemiluminescence, Amersham, Arlington Heights, Ill.) as previously described (Sharma et al. Cell. Motil. Cytoskeleton 27:234-247).

caspase-3 [3] = test: Caspase-3 activity assay in MSN cells; assay type: cell-based, human
survivin [4] = test: Western blot of survivin protein in antisense oligonucleotide-treated MSN cells; assay type: cell-based, human
Procedure: Six survivin (900-906) antisense oligonucleotides were administered at 400 nM to MSN cells in the presence of lipofectin for 48 hours. Each lane has 100 μg of protein. The blots were cut at 32.9 kD and the bottom incubated with the survivin polyclonal antibody (1:500), while the top was incubated with β-tubulin.
Since survivin antisense oligonucleotide 903 decreased survivin protein levels by 76%, the dose dependency of 903 on survivin protein levels was further studied. As expected, mismatched oligonucleotides had no effect on the relative abundance of survivin. […] In the presence of lipofectin, survivin antisense oligonucleotide 903 was administered to MSN cells for 48 hours at 50 nM to 200 nM. Total protein (100 μg) was loaded/lane.
Survivin antisense oligonucleotide 904 decreased survivin protein levels by 46% and 60% while survivin levels were unchanged in cells incubated with the mismatched oligonucleotide 1132. MSN cells were treated with lipofectin, survivin antisense oligonucleotide 904 or 908 at 400 nM and 600 nM, or mismatched oligonucleotide 1132 at 400 nM concentrations. Total protein (100 μg) was separated by SDS polyacrylamide gel electrophoresis and transferred to a nitrocellulose support. The blots were cut at 32.9 kD and the bottom blots incubated with the survivin polyclonal antibody (1:500), while the top blots were incubated with tubulin.
The antisense oligonucleotides were synthesized on solid support with an automated DNA synthesizer using β-cyanoethylphosphoramidite chemistry. In order to prevent rapid degradation of the antisense oligonucleotides by cellular nucleases, oxidation was carried out with Becauge sulfurizing agent to obtain phosphorothioate backbone modified oligonucleotides. After their synthesis, the oligonucleotides were released from the solid support, deprotected, purified by reverse-phase HPLC, desalted, filtered and lyophilized. The purity and sequence integrity of oligonucleotides was ascertained by capillary gel electrophoresis and MALDI-TOF mass spectral analysis and the concentrations measured at […]. Cells were grown in 100 mm dishes and oligonucleotide treatment was performed on subconfluent cultures in the presence of Lipofectin (GIBCO) according to the manufacturer. Forty-eight hours following treatment, total protein homogenates were isolated.
as §2

XIAP = settings: MSN cells; 400 nM; 48 hours (FIG. 10A)
Procedure: MSN cells were treated with lipofectin or 400 nM survivin antisense oligonucleotides 900, 901, 903, 904, 905 and 906. Total protein was isolated 48 hours after treatment, and 100 μg of protein was loaded per lane. The blot was incubated with a monoclonal antibody against XIAP (1:1000; IgG1). Visualization was by enhanced chemiluminescence (ECL). […] The experiment was performed twice.
Total protein homogenates were prepared according to a previously described procedure (Albala et al. (1995) J. Neurochem. 64:2480-2490). Protein content was measured using the Bio-Rad detection system (Bio-Rad Laboratories, Hercules, Calif.). Equal amounts of protein were analyzed by SDS-PAGE on 10% gels (Laemmli (1970) Nature 227:680-685). The resolved polypeptides were electrophoretically transferred to nitrocellulose (Towbin et al. (1979) Proc. Natl. Acad. Sci. USA 76:4350-4354).
Survivin polyclonal antibody was purchased from R & D Systems, Inc. (Minneapolis, Minn.). […] A generic β-tubulin monoclonal antibody (TUB 2.1) was purchased from SIGMA (St. Louis, Mo.). The XIAP mAb was purchased from StressGen Biotechnologies Corp. (Victoria, Canada). The poly-ADP ribosyl polymerase (PARP) mAb was purchased from PharMingen/Transduction Laboratories (San Diego, Calif.).

PARP = PARP cleavage immunoblot in MSN cells; assay type: cell-based, human
Procedure: To determine whether MSN cell death by survivin antisense oligonucleotides was mediated by caspase-3 activation, studies were conducted to examine whether PARP was cleaved following survivin antisense treatment. […] Since no PARP cleavage was detected, further tests were conducted to determine whether survivin antisense-treated cells have any active caspase-3.

caspase-3 [5] = test: Caspase-3 activity assay in MSN cells; assay type: cell-based, human; remark: listed apart in the source
Procedure: MSN cells were treated with lipofectin, 400 nM survivin antisense oligonucleotide 903, 904, or mismatched oligonucleotide 1132, for a 48 hour period. Cell pellets were washed twice in cold PBS and re-suspended in ice-cold hypotonic cell lysis buffer (25 mM HEPES, pH 7.5, 5 mM MgCl2, 5 mM EDTA, 5 mM DTT, 2 mM PMSF, 10 μg/ml pepstatin A, 10 μg/ml leupeptin). Re-suspended pellets were incubated on ice for 20 min, followed by brief sonication for two seconds. Lysates were centrifuged at 14,000 rpm for 20 minutes at 4° C. The supernatant was retained and the protein concentration analyzed by the Bio-Rad protein assay described above.
Supernatants were assayed in triplicate, with and without the caspase-3 inhibitor, Ac-DEVD-CHO, using black opaque, 96 well, flat bottom plates (Greiner Laboratories, USA Scientific Inc., Orlando, Fla.). 50-100 μg of the supernatant was incubated in caspase-3 assay buffer (100 mM HEPES, pH 7.5, 10% sucrose, 0.1% CHAPS and 10 mM DTT) with either 2 μl of DMSO or 2 μl of 2.5 mM Ac-DEVD-CHO (Pharmingen, San Diego, Calif.) so that the final concentration of the inhibitor was 50 μM in a final volume of 100 μl. It was then incubated at 30° C. for 30 minutes. Subsequently, 2 μl of the caspase-3 substrate 2.5 mM Ac-DEVD-AMC (Pharmingen, San Diego, Calif.) (final concentration 50 μM)) was added to each well. Plates were incubated at 30° ° C. for 60 minutes in the dark.
Fluorescence of the reaction was measured using a SPECTRAmax GEMINI spectrofluorometer using SOFTmax® PRO software (Molecular Devices, Sunnyvale, Calif.) at an excitation wavelength of 355 nm and an emission wavelength of 460 nm with a cutoff filter of 455 nm. The data is presented as the ratio of the mean relative fluorescence units/mg protein±SD.

MSN cells = test: Flow cytometry of MSN cells treated with G2/M blockers; assay type: cell-based, human
Procedure: Next, the regulation of survivin expression at G2/M cell cycle checkpoints was evaluated. First, survivin expression was increased following treatment with the G2/M checkpoint blockers, vinblastine, nocodazole, and taxotere.

[6] = 400 nM, lipofectin, 48 hours (FIG. 3A)

Compound: COC(=O)Nc1nc2ccc(C(=O)c3cccs3)cc2[nH]1 [nocodazole]
- fold increase in survivin protein (survivin [1]): 1.6 fold
- fold increase of survivin protein relative to DMSO or EtOH (survivin [2]): 2.6 fold
- survivin expression / survivin protein abundance after cell cycle blocker (survivin [2]): increased

Compound: CN[C@@H]1C[C@H]2O[C@@](C)([C@@H]1OC)n1c3ccccc3c3c4c(c5c6ccccc6n2c5c31)C(=O)NC4 [Staurosporine]
- caspase-3 activity, Relative units/mg protein +/− SD (caspase-3 [3]; 1 μM, 6 hours, triplicate): 264,281 ± 8130 Relative units/mg protein
- fold increase in caspase-3 activity (caspase-3 [3]; staurosporine treatment): over 7 fold

Compound: d(CAGTGGATGAAGGCAGCCTC) (antisense dC*dA*dG*dT*dG*dG*dA*dT*dG*dA*dA*dG*dG*dC*dA*dG*dC*dC*dT*dC) [Oligo 901]
- percentage of survivin protein over β-tubulin relative to lipofectin (survivin [4]; [6]): 38.3%
- fold change of XIAP protein over β-tubulin relative to lipofectin (XIAP): 3.9 fold

Compound: d(CCCTAGCTCACACTCTCATT) (antisense dC*dC*dC*dT*dA*dG*dC*dT*dC*dA*dC*dA*dC*dT*dC*dT*dC*dA*dT*dT) [Oligo 903, 20-mer phosphorothioate survivin antisense oligonucleotide, complementary to survivin mRNA 4385-4404]
- PARP cleavage, words (PARP): did not activate caspase-3 or cleave the caspase-3 substrate, PARP
- percentage of survivin protein over β-tubulin relative to lipofectin (survivin [4]; 50 nM, 48 hours (FIG. 3B)): 83.9%
- percentage of survivin protein over β-tubulin relative to lipofectin (survivin [4]; 75 nM, 48 hours (FIG. 3B)): 62.6%
- percentage of survivin protein over β-tubulin relative to lipofectin (survivin [4]; 100 nM, 48 hours (FIG. 3B)): 95.6%
- percentage of survivin protein over β-tubulin relative to lipofectin (survivin [4]; 200 nM, 48 hours (FIG. 3B)): 48.5%
- reduction in survivin (survivin [4]; 200 nM, 48 hours (FIG. 3B)): 51%
- decrease in survivin protein levels relative to lipofectin-treated control, normalized to β-tubulin (survivin [4]; 400 nM, 48 hours (FIG. 3A)): 76%
- percentage of survivin protein over β-tubulin relative to lipofectin (survivin [4]; [6]): 24.3%
- effect on survivin protein levels (survivin [4]; lipofectin, 48 hours): concentration-dependent decrease in survivin protein levels
- fold change of XIAP protein over β-tubulin relative to lipofectin (XIAP): 5.2 fold
- caspase-3 activity (caspase-3 [5]; MSN cells, 400 nM, 48 hours): no significant increase in caspase-3 activity; also recorded: did not activate caspase-3
- caspase-3 activity, Relative units/mg protein +/− SD (caspase-3 [5]; MSN cells, 400 nM, 48 hours, triplicate): 27,850 ± 2311 Relative units/mg protein

Compound: d(GAGCCTTCCTCTTCATGTCC) (antisense dG*dA*dG*dC*dC*dT*dT*dC*dC*dT*dC*dT*dT*dC*dA*dT*dG*dT*dC*dC) [Oligo 905]
- fold change of XIAP protein over β-tubulin relative to lipofectin (XIAP): 7.6 fold

Compound: CC(=O)O[C@@]12CO[C@@H]1C[C@H](O)[C@@]1(C)C(=O)[C@H](O)C3=C(C)[C@@H](OC(=O)[C@H](O)[C@@H](NC(=O)OC(C)(C)C)c4ccccc4)C[C@@](O)([C@@H](OC(=O)c4ccccc4)[C@H]21)C3(C)C [taxotere]
- cell cycle phase by flow cytometry (MSN cells): blocked at the G2/M cell cycle phase
- fold increase of survivin protein relative to DMSO or EtOH (survivin [2]): 1.7 fold
- survivin expression / survivin protein abundance after cell cycle blocker (survivin [2]): increased

Compound: d(GCCAGTTCTTGAATGTAGAG) (antisense dG*dC*dC*dA*dG*dT*dT*dC*dT*dT*dG*dA*dA*dT*dG*dT*dA*dG*dA*dG) [Oligo 900]
- percentage of survivin protein over β-tubulin relative to lipofectin (survivin [4]; [6]): 77.7%
- fold change of XIAP protein over β-tubulin relative to lipofectin (XIAP): 2.3 fold

Compound: CN1CC[C@H](c2c(O)cc(O)c3c(=O)cc(-c4ccccc4Cl)oc23)[C@H](O)C1 [flavopiridol]
- survivin expression / survivin protein abundance after cell cycle blocker (survivin [2]): did not alter survivin protein abundance

Compound: CC[C@]1(O)C[C@@H]2CN(CCc3c([nH]c4ccccc34)[C@@](C(=O)OC)(c3cc4c(cc3OC)N(C)[C@H]3[C@@](O)(C(=O)OC)[C@H](OC(C)=O)[C@]5(CC)C=CCN6CC[C@]43[C@@H]65)C2)C1 [vinblastine]
- cell cycle phase by flow cytometry (MSN cells): blocked at the G2/M cell cycle phase
- fold increase of survivin protein relative to DMSO or EtOH (survivin [2]): 1.9 fold
- survivin expression / survivin protein abundance after cell cycle blocker (survivin [2]): increased

Compound: Ac-DEVD-CHO [reference compound]
- effect of caspase-3 inhibitor on caspase-3 activation in the assay (caspase-3 [5]; added to MSN cell supernatants, final concentration 50 μM): eliminated caspase-3 activation
